Assay results published in US7959691B2, “Composition” (Innospec Deutschland GmbH, priority 2009, dated 2011).
Marks after values point to notes of the source that are not given here.

Experiments:
[1] = Solubility in Isopar L at −30° C. during 120 hours, X-ray fluorescence (Example 4); type: physicochemical; conditions: nominal 5 wt % iron; for Solubility (% m/m Fe): 0.02 μm filtration
Description: The solubility of the isolated samples was determined in Isopar L solvent. For the isolated samples of compounds 7 and 8 the C/H/N analysis was used to indicate the iron content. For compounds 9 and 10 the theoretical iron content was assumed. Solutions were then prepared, at ambient temperatures or with slight warming as required, to a nominal iron content 5 wt % The samples were then sealed and immersed in a bath of ethylene glycol/water cooled and thermostatted to −30° C. during 120 hours.
The samples were then individually removed from the bath, taken up into a 10 cm^3 syringe then discharged to a second vial with filtration via a Whatman Anotop 25 0.02 μm in-line filter with Luer hub. Iron contents were then determined by X-ray fluorescence spectroscopy in an Oxford Instruments ED2000 Ag analyser. The analyser was calibrated against standards of ferrocene in toluene at iron concentrations of 0.5 through 3.0 wt % by 0.5 wt % intervals and against ferrocene in Isopar L 0.5 and 1.0 wt % (approximate ambient temperature solubility limit). Where required, dilution of sample materials was employed to bring the concentration within the range of the calibration.

[2] = Iron content of Isopar L solutions stored at −30° C. (Example 2); type: physicochemical; conditions: for Iron content of Isopar L solutions at −30° C.: 5 wt % iron solutions in Isopar L stored at −30° C. at least one week, filtered, X-ray spectroscopy; for Iron content of Isopar L solutions at −30° C., purified sample: as E8, sample first purified by dissolving in minimum heptane, recrystallising out ferrocene, filtration, solvent removal
Description: The solubilities of the products of the above reactions were determined on a weight percent iron basis. […] Solutions at 5 wt % iron in Isopar L were prepared on this basis, sealed into vials and stored at −30° C. during at least one week.

[3] = Source text: Solubility testing was undertaken using the estimate of Fe content from C/H/N analysis. […] This procedure assumes the products below to contain substantially only C, H and Fe. Masses of product(s) sufficient to provide the required concentration of iron as condensation products were weighed into screw-cap vials and made up to 10.00 g with toluene. The samples were capped, shaken or swirled until homogenous then sealed using Parafilm™. The vials were then kept in an ethylene glycol/water filled bath held at −30° C. and periodically inspected for the appearance of solids or separation of liquid phases. After at least one week solids were separated by rapid filtration and soluble products isolated by removal of solvent under vacuum.
Following analysis of the solids, maximum and minimum solubilities were estimated from the mass balance.

[4] = Viscosity of 2.5 wt % iron solutions in toluene (Bohlin CVO rheometer); type: physicochemical; conditions: toluene solution at 2.5 wt % Fe
Description: Viscosities of 2.5 wt % iron solutions were determined using a Bohlin Instruments CVO rheometer using a 4° 40 mm cone and plate at shear rates of either 2 Pa or 0.5 Pa.

With “1,1-bis(butylferrocenyl)pentane [Compound 10]” the Appearance/ease of filtration [1] was “Clear, but hard to filter” and the “Solubility (% m/m Fe)” value [1] was 4.8 % m/m Fe.

For “1,1-bis(ethylferrocenyl)pentane [Compound 9]”, the Appearance/ease of filtration [1] was “Clear, filters well” and the “Solubility (% m/m Fe)” value [1] was 5.0 % m/m Fe.

For 1,1-bis-(ferrocenyl)-decane, the “Iron content of Isopar L solutions at −30° C.” value [2] was 4.41 wt %.

With 1,1-bis-(ferrocenyl)-heptane the “Iron content of Isopar L solutions at −30° C.” value [2] was 4.05 wt %.

For 1,1-bis-(ferrocenyl)-hexane, the “Iron content of Isopar L solutions at −30° C.” value [2] was 3.99 wt % and the “Iron content of Isopar L solutions at −30° C., purified sample” value [2] was 4.89* wt %.

For 1,1-bis-(ferrocenyl)-nonane, the “Iron content of Isopar L solutions at −30° C.” value [2] was 4.96 wt %.

In the case of 1,1-bis-(ferrocenyl)-octane, the “Iron content of Isopar L solutions at −30° C.” value [2] is reported as 4.60 wt % and the “Iron content of Isopar L solutions at −30° C., purified sample” value [2] is reported as 4.88* wt %.

For 1,1-diferrocenylpentane [Compound 4], the “Solubility in Toluene at −30° C., 2.5 wt % Fe” value (“Solubility … 2.5 wt % Fe” for short) [3] was “Clear”, the “Solubility in Toluene at −30° C., 5.0 wt % Fe” value (“Solubility … 5.0 wt % Fe” for short) [3] was “Clear” and the “Viscosity at −30° C.” value [4] was 5.4 mPas.

With 2,2-bis-(ferrocenyl)-heptane the “Iron content of Isopar L solutions at −30° C.” value [2] was 3.29 wt %.

For 2,2-bis-(ferrocenyl)-octane, the “Iron content of Isopar L solutions at −30° C.” value [2] was 2.72 wt %.

With 2,2-bis-(ferrocenyl)-pentane the “Iron content of Isopar L solutions at −30° C.” value [2] was 2.62 wt %.

In the case of 3,3-bis-(ferrocenyl)-butyl acetate, the “Iron content of Isopar L solutions at −30° C.” value [2] is reported as 2.30 wt %.

With 3,3-bis-(ferrocenyl)-hexane the “Iron content of Isopar L solutions at −30° C.” value [2] was 1.38 wt %.

In the case of 3,3-bis-(ferrocenyl)-pentane, the “Iron content of Isopar L solutions at −30° C.” value [2] is reported as 1.71 wt %.

In the case of `CCCCC(C=O)CC` (centres unmarked) [Compound 1, 2-Ethylhexanal], the “Solubility … 2.5 wt % Fe” value [3] is reported as “Clear”, the “Solubility … 5.0 wt % Fe” value [3] is reported as “Clear” and the “solubility limit in toluene” value [3] is reported as “less than 3.2 wt %”. For the same compound, the “Viscosity at −30° C.” value [4] was 5.1 to 6.4 mPas.

With `CC(=O)CCC(C)=O` [Compound 2, Acetonyl acetone] the “Solubility … 2.5 wt % Fe” value [3] was “Powder” and the “Solubility … 5.0 wt % Fe” value [3] was “Powder”.

With `CCCC(=O)CCC` [Compound 3, Heptan-4-one] the “Solubility … 2.5 wt % Fe” value [3] was “Clear”, the “Solubility … 5.0 wt % Fe” value [3] was “Solids” and the “Viscosity at −30° C.” value [4] was 5.1 mPas.
